Drawing on ChEMBL document CHEMBL1759969 (Bioorg Med Chem Lett, 2011), this text covers Ki, Ratio Ki and EC50 for 15 compounds.

One may read the Ki as a measure of affinity in units of concentration, obtained from inhibition or displacement. By EC50 is commonly meant the concentration at which the effect is half-maximal. Read a low EC50 as higher potency in that assay.

The target in test [1] is T1, Melatonin receptor type 1A (Homo sapiens, UniProt P48039). Kind of test: Displacement of 2-[125I]-iodomelatonin from human MT1 receptor expressed in HEK293 cells. Format: cell-based.
The target in test [2] is T2, Melatonin receptor type 1B (Homo sapiens, UniProt P49286).
T2 sequence (P49286 whole entry): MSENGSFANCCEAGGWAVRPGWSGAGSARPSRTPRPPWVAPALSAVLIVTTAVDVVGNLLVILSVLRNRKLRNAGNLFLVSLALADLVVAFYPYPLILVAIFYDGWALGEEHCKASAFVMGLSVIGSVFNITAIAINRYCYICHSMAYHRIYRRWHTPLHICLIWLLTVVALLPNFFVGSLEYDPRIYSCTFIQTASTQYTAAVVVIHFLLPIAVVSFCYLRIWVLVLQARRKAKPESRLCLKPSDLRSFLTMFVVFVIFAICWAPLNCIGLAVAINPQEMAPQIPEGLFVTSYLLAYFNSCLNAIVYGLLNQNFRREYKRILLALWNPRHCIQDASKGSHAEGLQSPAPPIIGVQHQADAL
In words: Displacement of 2-[125I]-iodomelatonin from human MT2 receptor expressed in HEK293 cells. Format: cell-based.

The next test is filed under the species Homo sapiens. In words: Selectivity ratio of Ki for human MT1 receptor to Ki for human MT2 receptor.
Test [3] has as its target T1, Melatonin receptor type 1A. Kind of test: Agonist activity at human MT1 receptor expressed in CHO cells by [35S]GTPgamma binding assay. The format is functional, cell-based.
Test [4] has as its target T2, Melatonin receptor type 1B. Kind of test: Agonist activity at human MT2 receptor expressed in CHO cells by [35S]GTPgamma binding assay. The format is functional, cell-based.

The structures appear in SMILES notation.

T1 sequence (P48039 whole entry): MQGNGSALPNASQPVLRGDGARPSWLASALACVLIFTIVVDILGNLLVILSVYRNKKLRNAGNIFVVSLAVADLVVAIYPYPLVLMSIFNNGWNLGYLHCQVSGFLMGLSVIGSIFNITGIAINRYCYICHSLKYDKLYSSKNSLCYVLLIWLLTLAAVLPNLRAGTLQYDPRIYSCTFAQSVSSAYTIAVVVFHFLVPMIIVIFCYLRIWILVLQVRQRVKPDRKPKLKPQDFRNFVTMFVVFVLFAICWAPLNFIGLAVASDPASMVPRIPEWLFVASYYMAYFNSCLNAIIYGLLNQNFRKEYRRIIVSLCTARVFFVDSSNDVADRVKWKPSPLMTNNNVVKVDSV

Turning to `COc1ccc2c(CN3CCN(c4cccc(Cl)c4)CC3)cn(CCNC(C)=O)c2n1`, the Ki in test [1] was 1210 nM; in test [2] it was 929 nM. Further, the Ratio Ki in the test filed under Homo sapiens was 1.3.

For `COc1ccc2c(CN(C)Cc3ccccc3)cn(CCNC(C)=O)c2n1`, the results for the Ki in test [1] and in test [2] were 10500 nM and 4010 nM, respectively. Moreover, in the test listed under Homo sapiens, the Ratio Ki came to 2.6.

As to `CNCc1cn(CCNC(C)=O)c2nc(OC)ccc12`, the Ki in test [1] came to 8300 nM; in test [2] it was 1090 nM. In addition, the Ratio Ki in the test listed under Homo sapiens worked out at 7.6.

Take `COc1ccc2c(I)cn(CCNC(C)=O)c2n1`: the Ki in test [1] amounted to 16 nM; in test [2], 5 nM. Moreover, the EC50 in test [3] was found to be 32 nM; in test [4] it was 11 nM. Moreover, the Ratio Ki in the test listed under Homo sapiens was determined as 3.2.

As for `CCC(=O)NCCn1ccc2ccc(OC)nc21`, the results for the Ki in test [1] and in test [2] were 3.3 nM and 0.28 nM, respectively. For the same compound, the concentration for a half-maximal effect (EC50) came to 5.1 nM in test [3] and 1.4 nM in test [4]. Moreover, the Ratio Ki in the test listed under Homo sapiens stood at 11.8.

`COc1ccc2c(CN3CCCCC3)cn(CCNC(C)=O)c2n1`: the Ki in test [1] came to 510 nM; in test [2] it was 742 nM. Moreover, the Ratio Ki in the test listed under Homo sapiens worked out at 0.7.

With `COc1cnc2[nH]cc(CCNC(C)=O)c2c1`, the inhibitory constant (Ki) in test [2] turned out to be 117 nM. The compound also displayed an EC50 in test [4] of 380 nM.

Consider `COc1ccc2c3c(n(CCNC(C)=O)c2n1)CCCC3`, for which the Ki in test [1] is 9 nM; in test [2], 0.68 nM. Further, the EC50 in test [3] turned out to be 16 nM; in test [4], 1.3 nM. The Ratio Ki in the test filed under Homo sapiens was 13.2.

In the case of `CCCC(=O)NCCn1ccc2ccc(OC)nc21`, affinity in test [2] was put at a Ki of 0.3 nM. In addition, a half-maximal effect in test [4] (EC50) was put at 0.7 nM.

In the case of `COc1ccc2c(C(=O)C(F)(F)F)cn(CCNC(C)=O)c2n1`, the Ki in test [1] was determined as 91 nM; in test [2] it was 30 nM. For the same compound, the EC50 in test [3] came to 93 nM; in test [4], 10 nM. Also, the Ratio Ki in the test filed under Homo sapiens amounted to 3.

As to `COc1ccc2c(CN3CCOCC3)cn(CCNC(C)=O)c2n1`, the results for the inhibitory constant (Ki) in test [1] and in test [2] were over 10000 nM and 550 nM, respectively. For the same compound, the Ratio Ki in the test filed under Homo sapiens was over 20.

In the case of `COc1ccc2ccn(CCNC(C)=O)c2n1`, the Ki turned out to be 1.4 nM in test [1] and 0.6 nM in test [2]. Further, the figures for the EC50 in test [3] and in test [4] were 4 nM and 2.1 nM, respectively. Besides, in the test listed under Homo sapiens, the Ratio Ki turned out to be 2.3.

Consider `COc1ccc2[nH]cc(CCNC(C)=O)c2n1`, for which the values for the inhibitory constant (Ki) in test [1] and in test [2] were 0.2 nM and 0.3 nM, respectively. Further, the 50% effective concentration (EC50) in test [3] came out at 12 nM; in test [4], 1.1 nM. Besides, the Ratio Ki in the test listed under Homo sapiens was 0.7.

Take `COc1ccc2c(CN(C)C)cn(CCNC(C)=O)c2n1`: the Ki in test [1] and in test [2] was over 10000 nM throughout.

Consider `COc1ccc2c(CN3CCC(C(=O)c4ccc(F)cc4)CC3)cn(CCNC(C)=O)c2n1`, for which the Ki in test [1] stood at 9490 nM; in test [2], 7440 nM. Besides, in the test listed under Homo sapiens, the Ratio Ki was 1.3.
